# Measured values taken from patent US4012387A, “Benzo-[g]pyrido[2,1-b]quinazolinones” (Warner-Lambert Company, priority 1975, dated 1977).
# Where two headings read alike, the source gives them in different places.
# Tested on: rat passive cutaneous anaphylaxis
# Experiment: rat passive cutaneous anaphylaxis test (PCA), procedure of Herzig
# Assay type: in vivo
# Description: Mansmann, Eds., John Wiley and Son, N.Y., 1975].
# Effective dose 50% inhibition rat passive cutaneous anaphylaxis
# [1] = effective dose 50% inhibition, rat PCA, intravenous, read-out: ED50 -PCA (rat) iv.
SMILES,ED50 [1],"ED50 (effective dose 50% inhibition, rat PCA, oral, read-out: ED50 -PCA (rat) po.)","effectiveness compared with the commercial compound (Intal), i.v. administration (i.v., rat PCA, comparison in words)","activity in rat PCA when given intraperitonially (intraperitoneal, result in words)","ED50 (ip, effective dose 50% inhibition, rat PCA, intraperitoneal, read-out: ED50 -PCA (rat) ip.)","activity in rat PCA when given orally (oral, result in words)","ED50 -PCA (rat) ip. (effective dose 50% inhibition, rat PCA, intraperitoneal)","ED50 -PCA (rat) po. (effective dose 50% inhibition, rat PCA, oral)"
"O=C(O)c1ccc2nc3cc4ccccc4cc3c(=O)n2c1 [Example 1, 6-oxo-6H-benzo[g]pyrido[2,1-b]quinazoline-3-carboxylic acid]",0.015 mg/kg,< 0.1 mg/kg,many times as effective,active,0.015 mg/kg,active,,
"O=C(O)c1cc(=O)c2c(OCC(O)COc3cccc4oc(C(=O)O)cc(=O)c34)cccc2o1 [Intal, Cromoglycate, reference compound]",1 to 2 mg/kg,,,,,,inactive,inactive
